Measured values as given in patent US8703431B2, “Polypeptides for the in vitro assessment of the sensitising potential of a test compound” (Immunosearch, priority 2009, dated 2014).

Columns and labels:
[1] = system: polypeptide of sequence SEQ ID NO: 18 (Ac-RFAAKAA-NH2); test: HPLC test of % fixing of test compound on polypeptide (positive control peptide); assay type: binding; conditions: 0.5 mM polypeptide, 5 mM test compound, 100 mM ammonium acetate buffer pH 10.2, 30° C., 4 hours, darkness
Protocol: (§1) A test with 0.5 mM of polypeptide and 5 mM of test compound is carried out under the following conditions:
(§2) The reaction mixture containing 40 μl of peptide solution (1.25 mM stock solution in a 100 mM ammonium acetate buffer at pH 10.2 and the polypeptide of sequence SEQ ID NO: 18, SEQ ID NO: 7 in which X1, X2, X3 and X4 each represents a lysine, or SEQ ID NO: 8 in which X1, X2, X3 and X4 each represents a lysine), 35 μl of 100 mM ammonium acetate buffer solution, at pH 10.2, 20 μl of acetonitrile and 5 μl of solution to be tested (100 mM stock solution in acetonitrile or a 50% acetonitrile 50% DMSO mixture) was prepared and then stirred.
The sequence SEQ ID NO: 18, which is not a lipocalin derivative, was used as a positive control. This sequence corresponds to the following sequence:
(§3) The reaction mixture was then put to incubate at 30° C. for 4 hours and in darkness.
(§4) HPLC analysis was then carried out at a gradient of 10% to 45% of buffer B (acetonitrile+0.08% of trifluoroacetic acid (TFA)) in 20 minutes (buffer A: water+0.1% of TFA), rate 1 ml/minute. Detection was carried out under UV at 230 nm.
(§5) The control without allergen consisted of 40 μl of buffer solution.

[2] = biological target: T1, polypeptide SEQ ID NO: 8 in which X1, X2, X3 and X4 each represents a lysine (Mus musculus, UniProt O09114); test: HPLC test of % fixing of test compound on polypeptide; assay type: binding; conditions: 5 mM test compound; for % fixing (mean), SEQ ID NO: 8 (X1-X4 lysine): Example 4; for fixing, SEQ ID NO: 8 (X1-X4 lysine), pH 8.3 / fixing, SEQ ID NO: 8 (X1-X4 lysine), pH 8.8 / fixing, SEQ ID NO: 8 (X1-X4 lysine), pH 9.2: Example 3; for fixing, SEQ ID NO: 8 (X1-X4 lysine), pH 8.3: twice 0.5 mM polypeptide (SEQ ID NO: 19 and 8), TRIS-HCl pH 8.3; for fixing, SEQ ID NO: 8 (X1-X4 lysine), pH 8.3 / fixing, SEQ ID NO: 8 (X1-X4 lysine), pH 9.2: 'Fixing' = fixing exists but not quantifiable; for fixing, SEQ ID NO: 8 (X1-X4 lysine), pH 8.8: TRIS-HCl pH 8.8; for fixing, SEQ ID NO: 8 (X1-X4 lysine), pH 9.2: TRIS-HCl pH 9.2
T1 construct: made in house; host or cells: chemical peptide synthesis (Fmoc)
T1 sequence (O09114 148-173 limits assumed): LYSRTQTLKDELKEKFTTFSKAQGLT
Protocol: as §1, §2, §3, §4, §5
(§6) The buffer used was 100 Mm TRIS-HCl at pH 8.3, pH 9.2 and pH 8.8.
(§7) The buffer used was TRIS-HCl at 100 mM.
(§8) A test with twice 0.5 mM of polypeptides of sequences SEQ ID NO: 19 and SEQ ID NO: 1 wherein X1, X2, X3 and X4 each represent a lysine, and having an NH2 group at its C-Terminal end, and SEQ ID NO: 8 wherein X1, X2, X3 and X4 each represent a lysine, and 5 mM of test compound, was carried out in accordance with the same protocol as that described for example 1.

[3] = biological target: T2, polypeptide SEQ ID NO: 7 in which X1, X2, X3 and X4 each represents a lysine (Mus musculus, UniProt P11672, DEL176-176); test: as above; assay type: binding; conditions: 0.5 mM polypeptide, 5 mM test compound, 100 mM ammonium acetate buffer pH 10.2, 30° C., 4 hours, darkness
T2 construct: made in house; host or cells: chemical peptide synthesis (Fmoc)
T2 sequence (P11672 with tags, fused parts or gaps DEL176-176 limits assumed): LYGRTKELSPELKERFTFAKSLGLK
Protocol: as §1, §2, §3, §4, §5

[4] = skin sensitisation, as stated in the description; cited from earlier work
[5] = system: polypeptide of sequence SEQ ID NO: 19 (Ac-RFAACAA-NH2); test: HPLC test of % fixing of test compound on polypeptide (positive control peptide); assay type: binding; conditions: 5 mM test compound; for fixing, SEQ ID NO: 19, pH 8.3 / fixing, SEQ ID NO: 19, pH 8.8 / fixing, SEQ ID NO: 19, pH 9.2: Example 3; for fixing, SEQ ID NO: 19, pH 8.3: twice 0.5 mM polypeptide (SEQ ID NO: 19 and 8), TRIS-HCl pH 8.3; for fixing, SEQ ID NO: 19, pH 8.3 / fixing, SEQ ID NO: 19, pH 8.8: 'Fixing' = fixing exists but not quantifiable; for % fixing (mean), SEQ ID NO: 19: Example 4; for fixing, SEQ ID NO: 19, pH 8.8: TRIS-HCl pH 8.8; for fixing, SEQ ID NO: 19, pH 9.2: TRIS-HCl pH 9.2
Protocol: as §1, §2, §3, §4, §5
A test with 0.5 mM of polypeptide of sequence […] and 5 mM of test compound was carried in accordance with the same protocol as that described for example 1.
The sequence SEQ ID NO: 19, which is not a lipocalin derivative, was used as a positive control. This sequence corresponds to the following sequence:
The buffer used was 100 mM TRIS-HCl at pH 8.3.
as §6, §7, §8

[6] = system: polypeptide SEQ ID NO: 1 wherein X1, X2, X3 and X4 each represent a lysine, having an NH2 group at its C-Terminal end; test: HPLC test of % fixing of test compound on polypeptide; assay type: binding; conditions: for % fixing, SEQ ID NO: 1 (X1-X4 lysine, NH2 group at C-Terminal end): Example 5, 5 mM test compound, TRIS-HCl 100 mM, signal disturbed, preventing measurements greater than 82-83% fixing, these values represent a minimum; for precipitation of test compound during measurements with SEQ ID NO: 1: Example 5 conditions, explains the medium fixing results
Protocol: as §1, §2, §3, §4, §5, §8, §7
It should be noted, in the case of the tests of SEQ ID NO: 1, the signal was disturbed, preventing measurements greater than 82-83% fixing. These values consequently represent a minimum.
A coelution of the polypeptide with the allergens cinnamic aldehyde and 1,2-Benzisothiazolin-3-one was observed.

[7] = 0.5 mM polypeptide, 100 mM ammonium acetate buffer pH 10.2, 30° C., 4 hours, darkness
[8] = twice 0.5 mM polypeptide, TRIS-HCl 100 mM, 'Fixing' = not quantifiable
[9] = Example 5, twice 0.5 mM polypeptide, TRIS-HCl 100 mM, 'Fixing' = not quantifiable
[10] = twice 0.5 mM polypeptide, TRIS-HCl 100 mM
[11] = Example 5, twice 0.5 mM polypeptide, TRIS-HCl 100 mM
[12] = Example 2, 0.5 mM polypeptide, 100 mM TRIS-HCl pH 8.3

| SMILES | % fixing, SEQ ID NO: 18 [1] | % fixing, SEQ ID NO: 8 (X1-X4 lysine) [2, 7] | % fixing (mean), SEQ ID NO: 8 (X1-X4 lysine) [2, 8] | % fixing, SEQ ID NO: 8 (X1-X4 lysine) [2, 9] | % fixing, SEQ ID NO: 7 (X1-X4 lysine) [3] | sensitising capacity (sensitiser class) [4] | fixing, SEQ ID NO: 19, pH 8.3 [5] | % fixing (mean), SEQ ID NO: 19 [5, 10] | % fixing, SEQ ID NO: 19 [5, 11] | % fixing, SEQ ID NO: 1 (X1-X4 lysine, NH2 group at C-Terminal end) [6] | fixing, SEQ ID NO: 8 (X1-X4 lysine), pH 8.3 [2] | fixing, SEQ ID NO: 8 (X1-X4 lysine), pH 8.8 ([2]; twice 0.5 mM polypeptide) | fixing, SEQ ID NO: 8 (X1-X4 lysine), pH 9.2 ([2]; twice 0.5 mM polypeptide) | fixing, SEQ ID NO: 19, pH 8.8 ([5]; twice 0.5 mM polypeptide) | % fixing, SEQ ID NO: 19 [5, 12] | fixing, SEQ ID NO: 19, pH 9.2 ([5]; twice 0.5 mM polypeptide) | precipitation of test compound during measurements with SEQ ID NO: 1 [6] |
| --- | --- | --- | --- | --- | --- | --- | --- | --- | --- | --- | --- | --- | --- | --- | --- | --- | --- |
| O=C/C=C/c1ccccc1 [CA, cinnamic aldehyde] | 17% | 30% | 30% | 30% | 100% | moderate sensitisers |  |  |  |  |  |  |  |  |  |  |  |
| Oc1ccc(O)cc1 [HQ, 1,4-hydroquinone] |  |  | 100% | 100% |  | strong sensitisers | 100% | 90% | 90% | 82.5% | 100% | 100% | Fixing |  |  |  |  |
| O=c1[nH]sc2ccccc12 [Ben, 1,2-benzisothiazolin-3-one] |  |  |  |  |  | moderate sensitisers | Fixing | 90% | 90% |  | 100% | 100% | 0% | Fixing |  |  |  |
| CN(C)CCCN [3-DMAPA, 3-3-dimethylaminopropylamine] |  |  | 6% | 6% |  | moderate sensitisers |  | 15% | 15% | 3% |  |  |  |  | 25% |  |  |
| CC(C)=CCCC(C)=CC=O [Cal, citral] |  |  | 70% | 70% |  | moderate sensitisers |  | 46% | 46% | 64% |  |  |  |  | 70% |  |  |
| O=CCc1ccccc1 [PA, phenylacetaldehyde] |  |  | Fixing | Fixing |  | moderate sensitisers | 100% | 81% | 81% | 54% | Fixing | 0% | 21% |  |  | 86% | very greatly precipitated |
| O=c1c(-c2ccccc2)c1-c1ccccc1 [DPCP, diphenylcyclopropenone] |  |  |  |  |  | extremely strong sensitiser |  | 100% | 100% | 83.5% |  |  |  |  | 96% |  |  |
| Clc1ccccc1 [Cbz, chlorobenzene] | 0% | 0% | 0% | 0% | 0% | non-sensitising |  | 0% | 0% | 7.5% |  |  |  |  | 0% |  |  |
| O=CCCCC=O [GA, glutaraldehyde] |  |  | 50% | 50% |  | strong sensitisers | 22% | 33% | 33% | 83% | 50% | 100% | 50% | Fixing |  | 33% |  |
| CCCCCCCCCCCCOC(=O)c1cc(O)c(O)c(O)c1 [LG, lauryl gallate] | 62% | 63% | 62% | 62% | 100% | strong sensitisers |  | 100% | 100% | 41.5% |  |  |  |  | 100% |  | very greatly precipitated |
| CC(C=O)Cc1ccc(C(C)(C)C)cc1 (stereo not shown) [Li, lilial] |  |  | 0% | 0% |  | weak sensitiser | 36% | 18% | 18% | 12% | 0% |  |  |  |  | 0% |  |
| CC(O)C(=O)O (stereo not shown) [LA, lactic acid] |  |  | 0% | 0% |  | non-sensitising | 0% | 0% | 0% | 1% | 0% | 0% | 0% | 0% |  | 0% |  |
